Molecular target: recombinant full-length human hydroxyacid oxidase 1 (HAO1), the equivalents of hGOX (Homo sapiens (Human), UniProt Q9UJM8)
Test: In-vitro human glycolate oxidase (hGOX) assay (Amplex red fluorescence)
Assay type: biochemical
Settings: 6 nM recombinant human GO, 85 μM glycolate, 10 min preincubation
Description: The in-vitro glycolate oxidase assay was performed using recombinant full-length human hydroxyacid oxidase 1 (HAO1), the equivalents of hGOX. […] Purified HAO1 was dissolved in assay buffer consisting of 10 mM NaCl, 110 mM KCl, 2 mM MgCl2, 50 mM HEPES (pH 7.4), and 0.01% Triton™ X-100.
The plates were incubated for 10 min at room temperature, at which point Amplex red reagent (50 μM) was added.
The fluorescence intensity signal was measured on a VariosKan LUX instrument using an excitation of 560 nm and an emission of 590 nm. The IC50 values were calculated using Graphpad Prism. The fluorescence signal of wells containing only DMSO was defined as 100% GO activity, while the fluorescence signal without the glycolate substrate was defined as 0% GO activity.

Sequence of recombinant full-length human hydroxyacid oxidase 1 (HAO1), the equivalents of hGOX (Q9UJM8 whole entry): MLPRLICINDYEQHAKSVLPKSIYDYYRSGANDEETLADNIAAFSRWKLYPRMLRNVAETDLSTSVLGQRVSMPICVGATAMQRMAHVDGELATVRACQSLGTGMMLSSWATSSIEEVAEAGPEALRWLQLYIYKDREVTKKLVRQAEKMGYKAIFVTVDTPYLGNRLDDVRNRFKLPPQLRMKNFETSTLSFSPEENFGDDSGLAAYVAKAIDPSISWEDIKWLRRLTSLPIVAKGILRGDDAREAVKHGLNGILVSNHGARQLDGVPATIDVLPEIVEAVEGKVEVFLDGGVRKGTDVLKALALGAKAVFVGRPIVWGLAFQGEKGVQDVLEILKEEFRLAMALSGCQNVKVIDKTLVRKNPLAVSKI

Compound | IC50 [nM]
CC(C)(O)C#Cc1ccc(Oc2[nH]nnc2C(=O)O)cc1 [Example 13, 5-(4-(3-Hydroxy-3-methylbut-1-ynyl)phenoxy)-1H-1,2,3-triazole-4-carboxylic Acid] | 440
O=C(O)c1nonc1Oc1ccc(C#CCC2CC2)cc1 [Example 369, 4-(4-(3-Cyclopropylprop-1-ynyl)phenoxy)-1,2,5-oxadiazole-3-carboxylic Acid] | > 1000
O=C(O)c1nn[nH]c1Oc1ccc(C#Cc2cccnn2)cc1 [Example 339, 5-(4-(2-(Pyridazin-3-yl)ethynyl)phenoxy)-1H-1,2,3-triazole-4-carboxylic Acid] | 4
O=C(O)c1nn[nH]c1Oc1cccc(C#Cc2ccccn2)c1 [Example 311, 5-(3-(2-(Pyridin-2-yl)ethynyl)phenoxy)-1H-1,2,3-triazole-4-carboxylic Acid] | 3
N#Cc1cccc(C#Cc2ccc(Oc3[nH]nnc3C(=O)O)cc2F)c1 [Example 270, 5-(4-((3-Cyanophenyl)ethynyl)-3-fluorophenoxy)-1H-1,2,3-triazole-4-carboxylic Acid] | 1
O=C(O)c1nn[nH]c1Nc1ccc(C#CCC2CC2)cc1 [Example 362, 5-(4-(3-Cyclopropylprop-1-ynyl)phenylamino)-1H-1,2,3-triazole-4-carboxylic Acid] | 230
O=C(O)c1nn[nH]c1Oc1cc(F)cc(C#Cc2ccccc2)c1 [Example 258, 5-(3-Fluoro-5-(2-phenylethynyl)phenoxy)-1H-1,2,3-triazole-4-carboxylic Acid] | 2
O=C(O)c1nn[nH]c1Oc1cccc(C#Cc2cnccn2)c1 [Example 338, 5-(3-(2-(Pyrazin-2-yl)ethynyl)phenoxy)-1H-1,2,3-triazole-4-carboxylic Acid] | 4
Cn1cc(Oc2[nH]nnc2C(=O)O)cc(C#CCC2CC2)c1=O [Example 368, 5-(5-(3-Cyclopropylprop-1-ynyl)-1,6-dihydro-1-methyl-6-oxopyridin-3-yloxy)-1H-1,2,3-triazole-4-carboxylic Acid] | > 1000
Cn1cc(C#Cc2cccc(Oc3[nH]nnc3C(=O)O)c2)ccc1=O [Example 209, 4-(3-((1-Methyl-6-oxo-1,6-dihydropyridin-3-yl)ethynyl)phenoxy)-1H-1,2,3-triazole-5-carboxylic Acid] | 8
O=C(O)c1nn[nH]c1Oc1ccc(C#Cc2ccc(Cl)cc2)cc1 [Example 290, 5-(4-(2-(4-Chlorophenyl)ethynyl)phenoxy)-1H-1,2,3-triazole-4-carboxylic Acid] | 0.4
O=C(O)c1nn[nH]c1Oc1ccc(C#CCc2ccc(F)cc2)cc1 [Example 353, 5-(4-(3-(4-fluorophenyl)prop-1-ynyl)phenoxy)-1H-1,2,3-triazole-4-carboxylic Acid] | 3
O=C(O)c1nn[nH]c1Oc1ccc(C#Cc2ccccc2)cc1F [Example 260, 5-(2-Fluoro-4-(2-phenylethynyl)phenoxy)-1H-1,2,3-triazole-4-carboxylic Acid] | 5
COc1cc(C#Cc2cccc(Oc3[nH]nnc3C(=O)O)c2)ccn1 [Example 285, 5-(3-(2-(2-Methoxypyridin-4-yl)ethynyl)phenoxy)-1H-1,2,3-triazole-4-carboxylic Acid] | 3
O=C(O)c1nn[nH]c1Oc1ccc(C#Cc2ncccn2)cc1 [Example 336, 5-(4-(2-(Pyrimidin-2-yl)ethynyl)phenoxy)-1H-1,2,3-triazole-4-carboxylic Acid] | 25

The remaining lines, values ahead:

IC50 [nM] | Compound
1 | O=C(O)c1nn[nH]c1Oc1cccc(C#Cc2cccc3[nH]ncc23)c1 [Example 328, 5-(3-(2-(1H-Indazol-4-yl)ethynyl)phenoxy)-1H-1,2,3-triazole-4-carboxylic Acid]
2 | Cn1ncc2ccc(C#Cc3ccc(Oc4[nH]nnc4C(=O)O)cc3)cc21 [Example 318, 5-(4-(2-(1-Methyl-1H-indazol-6-yl)ethynyl)phenoxy)-1H-1,2,3-triazole-4-carboxylic Acid]
20 | COc1ccc(Oc2[nH]nnc2C(=O)O)cc1C#Cc1ccccc1 [Example 264, 5-(4-Methoxy-3-(2-phenylethynyl)phenoxy)-1H-1,2,3-triazole-4-carboxylic Acid]
> 1000 | CCOC(=O)c1nn[nH]c1Oc1cccc(C#CCC2CC2)c1 [Example 357, Ethyl 5-(3-(3-cyclopropylprop-1-ynyl)phenoxy)-1H-1,2,3-triazole-4-carboxylate]
2 | CS(=O)(=O)c1ccc(C#Cc2cc(Oc3[nH]nnc3C(=O)O)ccc2F)cc1 [Example 266, 5-(4-Fluoro-3-(2-(4-(methylsulfonyl)phenyl)ethynyl)phenoxy)-1H-1,2,3-triazole-4-carboxylic Acid]
2 | O=C(O)c1nn[nH]c1Oc1ccc(C#Cc2ccc3cn[nH]c3c2)cc1 [Example 329, 5-(4-(2-(1H-Indazol-6-yl)ethynyl)phenoxy)-1H-1,2,3-triazole-4-carboxylic Acid]
3 | Cc1ccc(C#Cc2ccc(Oc3[nH]nnc3C(=O)O)cc2)cn1 [Example 297, 5-(4-(2-(6-Methylpyridin-3-yl)ethynyl)phenoxy)-1H-1,2,3-triazole-4-carboxylic Acid]
6 | CS(=O)(=O)c1cccc(C#Cc2cccc(Oc3[nH]nnc3C(=O)O)c2)c1 [Example 191, 5-(3-(2-(3-(Methylsulfonyl)phenyl)ethynyl)phenoxy)-1H-1,2,3-triazole-4-carboxylic Acid]
7 | O=C(O)c1nn[nH]c1Oc1ccc(C#Cc2cnccn2)cc1 [Example 337, 5-(4-(2-(Pyrazin-2-yl)ethynyl)phenoxy)-1H-1,2,3-triazole-4-carboxylic Acid]
2 | O=C(O)c1nn[nH]c1Oc1ccc(C#Cc2cccc3[nH]ncc23)cc1 [Example 327, 5-(4-(2-(1H-Indazol-4-yl)ethynyl)phenoxy)-1H-1,2,3-triazole-4-carboxylic Acid]
23 | O=C(O)c1nn[nH]c1Oc1ccc(C#CC(F)(F)F)cc1 [Example 335, 5-(4-(3,3,3-Trifluoroprop-1-ynyl)phenoxy)-1H-1,2,3-triazole-4-carboxylic Acid]
10 | O=C(O)c1nn[nH]c1Oc1ccc(C#Cc2ccccn2)cc1 [Example 308, 5-(4-(2-(Pyridin-2-yl)ethynyl)phenoxy)-1H-1,2,3-triazole-4-carboxylic Acid]
1 | O=C(O)c1nn[nH]c1Oc1cccc(C#Cc2ccc(F)cc2)c1 [Example 289, 5-(3-(2-(4-Fluorophenyl)ethynyl)phenoxy)-1H-1,2,3-triazole-4-carboxylic Acid]
5 | Cn1ccnc1C#Cc1cccc(Oc2[nH]nnc2C(=O)O)c1 [Example 334, 5-(3-(2-(1-Methyl-1H-imidazol-2-yl)ethynyl)phenoxy)-1H-1,2,3-triazole-4-carboxylic Acid]
1 | O=C(O)c1nn[nH]c1Oc1ccc(F)c(C#Cc2ccccc2)c1 [Example 259, 5-(4-Fluoro-3-(2-phenylethynyl)phenoxy)-1H-1,2,3-triazole-4-carboxylic Acid]
4 | O=C(O)c1nn[nH]c1Oc1ccc(Cl)c(C#Cc2ccccc2)c1 [Example 147, 5-(4-Chloro-3-(2-phenylethynyl)phenoxy)-1H-1,2,3-triazole-4-carboxylic Acid]
2 | O=C(O)c1nn[nH]c1Oc1cccc(C#Cc2ccc(Cl)cc2)c1 [Example 292, 5-(3-(2-(4-Chlorophenyl)ethynyl)phenoxy)-1H-1,2,3-triazole-4-carboxylic Acid]

— US11504367B2, “Compounds and methods for treating oxalate-related diseases” (OxaluRx, Inc., priority 2019, dated 2022)
